In the Kinase Knowledgebase extract (Sharma et al. 2016):

Assays:
PIK3CD (Human) = PIK3CD (Human) (UniProt O00329); experiment: Assessment of PIK3CD Kinase Activity
PIK3CG (human) = PIK3CG (human) (UniProt P48736); experiment: Assessment of PIK3CG Kinase Activity
PIK3CB (Human) = PIK3CB (Human) (UniProt P42338); experiment: Assessment of PIK3CB Kinase Activity
PIK3CA (human) = PIK3CA (human) (UniProt P42336); experiment: Assessment of PIK3CA Kinase Activity
Sequence of PIK3CA (human) (P42336 whole entry, looked up): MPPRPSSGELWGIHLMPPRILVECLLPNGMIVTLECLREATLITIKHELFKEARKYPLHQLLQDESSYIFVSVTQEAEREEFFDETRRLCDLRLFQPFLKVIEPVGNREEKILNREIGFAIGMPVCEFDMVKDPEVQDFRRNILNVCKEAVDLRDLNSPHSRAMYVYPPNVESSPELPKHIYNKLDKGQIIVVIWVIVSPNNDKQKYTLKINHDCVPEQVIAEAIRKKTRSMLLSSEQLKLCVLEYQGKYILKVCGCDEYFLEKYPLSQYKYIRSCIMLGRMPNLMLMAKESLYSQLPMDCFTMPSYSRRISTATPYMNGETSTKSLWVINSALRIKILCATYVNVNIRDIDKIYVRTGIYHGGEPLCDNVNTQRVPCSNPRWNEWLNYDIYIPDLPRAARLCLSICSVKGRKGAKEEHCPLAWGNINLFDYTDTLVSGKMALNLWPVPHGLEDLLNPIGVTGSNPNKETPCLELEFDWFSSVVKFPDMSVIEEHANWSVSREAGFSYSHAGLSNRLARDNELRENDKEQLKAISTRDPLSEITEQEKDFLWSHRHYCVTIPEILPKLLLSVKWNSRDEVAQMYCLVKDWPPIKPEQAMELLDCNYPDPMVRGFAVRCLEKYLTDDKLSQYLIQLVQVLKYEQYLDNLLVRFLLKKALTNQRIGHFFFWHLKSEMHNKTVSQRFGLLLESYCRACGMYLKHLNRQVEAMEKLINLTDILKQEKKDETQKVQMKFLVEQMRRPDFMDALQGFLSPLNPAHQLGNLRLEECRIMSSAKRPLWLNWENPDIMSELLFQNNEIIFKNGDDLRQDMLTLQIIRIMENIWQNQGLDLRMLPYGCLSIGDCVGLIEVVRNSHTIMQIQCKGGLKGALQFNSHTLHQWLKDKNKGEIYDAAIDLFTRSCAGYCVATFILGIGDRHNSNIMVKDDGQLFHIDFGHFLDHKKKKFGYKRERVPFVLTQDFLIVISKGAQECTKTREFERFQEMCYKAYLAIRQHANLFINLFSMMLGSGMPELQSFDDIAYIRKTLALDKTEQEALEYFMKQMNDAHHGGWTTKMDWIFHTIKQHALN

Sequence of PIK3CD (Human) (O00329 whole entry, looked up): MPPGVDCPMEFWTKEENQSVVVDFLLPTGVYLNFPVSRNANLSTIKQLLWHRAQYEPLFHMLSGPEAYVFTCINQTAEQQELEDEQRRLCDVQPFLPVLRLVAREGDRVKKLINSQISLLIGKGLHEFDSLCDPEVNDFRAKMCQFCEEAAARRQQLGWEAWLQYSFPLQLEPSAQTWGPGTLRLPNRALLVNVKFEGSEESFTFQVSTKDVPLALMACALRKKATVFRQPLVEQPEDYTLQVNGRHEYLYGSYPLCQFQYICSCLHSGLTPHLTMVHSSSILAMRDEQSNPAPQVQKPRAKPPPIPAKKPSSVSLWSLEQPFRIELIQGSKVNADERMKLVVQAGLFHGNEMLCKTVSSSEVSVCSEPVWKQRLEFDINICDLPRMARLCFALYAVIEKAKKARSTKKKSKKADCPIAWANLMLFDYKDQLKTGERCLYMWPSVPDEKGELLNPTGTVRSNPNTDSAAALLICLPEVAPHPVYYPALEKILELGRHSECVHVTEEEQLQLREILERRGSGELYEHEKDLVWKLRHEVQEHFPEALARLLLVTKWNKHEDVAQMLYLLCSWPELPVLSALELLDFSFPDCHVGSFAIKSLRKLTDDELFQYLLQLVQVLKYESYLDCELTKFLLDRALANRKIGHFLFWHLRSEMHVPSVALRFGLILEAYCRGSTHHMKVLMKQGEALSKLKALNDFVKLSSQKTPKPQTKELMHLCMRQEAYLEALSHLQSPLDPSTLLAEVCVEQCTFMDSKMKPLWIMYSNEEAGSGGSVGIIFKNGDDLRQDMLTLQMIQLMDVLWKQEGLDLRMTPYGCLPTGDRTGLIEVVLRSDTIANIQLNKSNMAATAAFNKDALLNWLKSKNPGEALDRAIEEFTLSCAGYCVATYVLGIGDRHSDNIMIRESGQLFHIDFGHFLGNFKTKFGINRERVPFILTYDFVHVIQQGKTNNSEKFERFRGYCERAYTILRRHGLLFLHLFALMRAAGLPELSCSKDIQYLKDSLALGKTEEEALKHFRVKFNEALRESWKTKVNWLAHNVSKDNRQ
Sequence of PIK3CB (Human) (P42338 whole entry, looked up): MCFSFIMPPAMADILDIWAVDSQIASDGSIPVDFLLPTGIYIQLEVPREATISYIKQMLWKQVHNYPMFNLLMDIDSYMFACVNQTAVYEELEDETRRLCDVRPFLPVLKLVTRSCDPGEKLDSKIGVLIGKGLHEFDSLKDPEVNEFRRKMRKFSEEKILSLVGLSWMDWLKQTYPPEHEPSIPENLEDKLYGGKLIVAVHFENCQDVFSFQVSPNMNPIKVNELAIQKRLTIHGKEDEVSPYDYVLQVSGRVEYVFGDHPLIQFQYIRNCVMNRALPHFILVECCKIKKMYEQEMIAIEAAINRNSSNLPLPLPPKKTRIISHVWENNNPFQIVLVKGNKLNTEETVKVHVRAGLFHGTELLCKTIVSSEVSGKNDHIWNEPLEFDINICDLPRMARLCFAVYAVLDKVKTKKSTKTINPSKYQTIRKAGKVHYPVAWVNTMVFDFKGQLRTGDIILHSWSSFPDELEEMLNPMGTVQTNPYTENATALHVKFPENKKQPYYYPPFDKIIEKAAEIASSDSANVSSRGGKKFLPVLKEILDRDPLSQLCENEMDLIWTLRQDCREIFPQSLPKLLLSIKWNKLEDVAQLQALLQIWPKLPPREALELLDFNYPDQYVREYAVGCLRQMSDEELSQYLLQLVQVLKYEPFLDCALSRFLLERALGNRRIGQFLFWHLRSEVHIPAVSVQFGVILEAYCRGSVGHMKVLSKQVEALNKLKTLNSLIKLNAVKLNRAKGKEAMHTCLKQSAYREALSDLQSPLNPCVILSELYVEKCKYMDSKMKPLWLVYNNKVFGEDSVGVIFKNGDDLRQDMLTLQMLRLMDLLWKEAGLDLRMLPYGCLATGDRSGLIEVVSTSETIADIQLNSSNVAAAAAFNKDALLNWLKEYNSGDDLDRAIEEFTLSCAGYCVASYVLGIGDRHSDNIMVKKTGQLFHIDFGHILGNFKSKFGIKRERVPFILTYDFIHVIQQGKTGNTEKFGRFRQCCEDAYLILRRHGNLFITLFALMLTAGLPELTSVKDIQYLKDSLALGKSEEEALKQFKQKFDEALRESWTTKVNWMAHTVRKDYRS
Sequence of PIK3CG (human) (P48736 whole entry, looked up): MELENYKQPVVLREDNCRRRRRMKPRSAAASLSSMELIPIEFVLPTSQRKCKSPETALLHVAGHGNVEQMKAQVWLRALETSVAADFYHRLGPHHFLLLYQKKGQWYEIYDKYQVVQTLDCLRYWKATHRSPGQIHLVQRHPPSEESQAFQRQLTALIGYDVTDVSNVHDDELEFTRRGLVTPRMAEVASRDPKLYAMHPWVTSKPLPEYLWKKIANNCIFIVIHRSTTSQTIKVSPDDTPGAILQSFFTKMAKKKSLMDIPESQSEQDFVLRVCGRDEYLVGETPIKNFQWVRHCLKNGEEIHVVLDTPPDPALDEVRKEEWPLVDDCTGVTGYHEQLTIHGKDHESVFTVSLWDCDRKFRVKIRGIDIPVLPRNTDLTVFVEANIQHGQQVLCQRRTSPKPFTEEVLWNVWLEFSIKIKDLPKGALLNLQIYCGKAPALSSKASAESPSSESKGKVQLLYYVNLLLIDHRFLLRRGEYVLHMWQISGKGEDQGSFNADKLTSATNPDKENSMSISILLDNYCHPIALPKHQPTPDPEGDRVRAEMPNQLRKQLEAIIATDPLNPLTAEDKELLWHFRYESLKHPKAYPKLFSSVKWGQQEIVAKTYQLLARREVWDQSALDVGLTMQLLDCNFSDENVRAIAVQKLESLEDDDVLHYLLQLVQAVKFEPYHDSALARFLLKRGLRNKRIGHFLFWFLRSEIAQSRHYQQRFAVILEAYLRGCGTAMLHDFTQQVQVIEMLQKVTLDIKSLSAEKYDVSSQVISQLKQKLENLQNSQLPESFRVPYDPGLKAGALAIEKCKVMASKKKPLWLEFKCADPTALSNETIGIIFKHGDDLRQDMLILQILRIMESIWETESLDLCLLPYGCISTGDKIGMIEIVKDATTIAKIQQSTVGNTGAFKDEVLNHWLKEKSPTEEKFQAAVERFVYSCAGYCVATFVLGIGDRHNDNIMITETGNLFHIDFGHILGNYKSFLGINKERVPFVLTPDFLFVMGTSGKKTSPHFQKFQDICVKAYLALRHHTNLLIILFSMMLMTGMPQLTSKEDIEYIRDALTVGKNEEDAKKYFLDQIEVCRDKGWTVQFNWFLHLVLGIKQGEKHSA

| Compound | IC50 (PIK3CD (Human)) | IC50 (PIK3CG (human)) | IC50 (PIK3CB (Human)) | IC50 (PIK3CA (human)) |
| --- | --- | --- | --- | --- |
| CCNC(=O)c1cc2nc(-c3cccc4[nH]ncc34)nc(N3CCOCC3)c2s1 | > 100 nM | > 100 nM | > 100 nM | < 1000 nM |
| CN(Cc1cc2c(N3CCOCC3)nc(-c3cnc4[nH]ccc4c3)nc2s1)S(C)(=O)=O | < 100 nM | < 100 nM | < 100 nM | < 1000 nM |
| C[C@H](O)CNCc1cc2nc(-c3cccc4[nH]ncc34)nc(N3CCOCC3)c2s1 | > 100 nM | < 100 nM | > 100 nM | < 1000 nM |
| O=C(NOCC1CC1)c1cc2nc(-c3cccc4[nH]ncc34)nc(N3CCOCC3)c2s1 | > 100 nM | < 100 nM | > 100 nM | < 1000 nM |
| CC(C)(O)c1cc2nc(-c3cccc4[nH]ccc34)nc(N3CCOCC3)c2s1 | > 100 nM | < 100 nM | < 100 nM | < 1000 nM |
| CN(Cc1cc2nc(-c3cccc4[nH]ncc34)nc(N3CCOCC3)c2s1)C(=O)c1ccccc1 | > 100 nM | > 100 nM | > 100 nM | < 1000 nM |
| O=C(O)c1cccc(-c2cc3nc(-c4cccc5[nH]ncc45)nc(N4CCOCC4)c3s2)c1 | > 100 nM | < 100 nM | < 100 nM | < 1000 nM |
| c1ccc(-c2cc3nc(-c4cccc5[nH]ncc45)nc(N4CCOCC4)c3o2)cc1 | > 100 nM | > 100 nM | < 100 nM | < 1000 nM |
| Cc1c(-c2cccc(S(C)(=O)=O)c2)sc2c(N3CCOCC3)nc(-c3cccc4[nH]ncc34)nc12 | < 100 nM | < 100 nM | < 100 nM | < 1000 nM |
| CC(C)(O)c1cc2nc(-c3cnc4[nH]ccc4c3)nc(N3CCOCC3)c2s1 | > 100 nM | < 100 nM | < 100 nM | < 1000 nM |
| COc1ccc(NCc2cc3nc(-c4cccc5[nH]ncc45)nc(N4CCOCC4)c3s2)cn1 | > 100 nM | < 100 nM | > 100 nM | < 1000 nM |
| CC(C)(O)c1cc2nc(-c3cccc4[nH]ncc34)nc(N3CCOCC3)c2s1 | > 100 nM | < 100 nM | < 100 nM | < 1000 nM |
| CC(C)(NC(=O)c1ccccc1)c1cc2nc(-c3cccc4[nH]ncc34)nc(N3CCOCC3)c2s1 | > 100 nM | < 100 nM | < 100 nM | < 1000 nM |
| CS(=O)(=O)N1CCC(C(O)c2cc3nc(-c4cccc5[nH]ncc45)nc(N4CCOCC4)c3s2)CC1 (centres undefined) | > 100 nM | < 100 nM | > 100 nM | < 1000 nM |
| CNC(=O)c1cccc(-c2cc3nc(-c4cccc5[nH]ncc45)nc(N4CCOCC4)c3s2)c1 | > 100 nM | < 100 nM | < 100 nM | < 1000 nM |
| c1cc(-c2nc(N3CCOCC3)c3sc(Cn4ccnc4)cc3n2)c2cn[nH]c2c1 | > 100 nM | < 100 nM | > 100 nM | < 1000 nM |
| O=S(=O)(NCCN1CCCCC1)c1cc2nc(-c3cccc4[nH]ncc34)nc(N3CCOCC3)c2s1 | > 100 nM | < 100 nM | < 100 nM | < 1000 nM |
| CS(=O)(=O)c1cccc(-c2cc3nc(-c4cccc5[nH]ncc45)nc(N4CCOCC4)c3s2)c1 | > 100 nM | < 100 nM | < 100 nM | < 1000 nM |

| Compound | IC50 (PIK3CD (Human)) | IC50 (PIK3CG (human)) | IC50 (PIK3CB (Human)) | IC50 (PIK3CA (human)) |
| --- | --- | --- | --- | --- |
| Nc1nc(-c2cc3nc(-c4cnc5[nH]ccc5c4)nc(N4CCOCC4)c3s2)cs1 | < 100 nM | < 100 nM | < 100 nM | < 1000 nM |
| CN(C)C(=O)c1cc2nc(-c3cccc4[nH]ncc34)nc(N3CCOCC3)c2s1 | > 100 nM | < 100 nM | > 100 nM | < 1000 nM |
| Cc1c(-c2cccc(S(C)(=O)=O)c2)sc2c(N3CCOCC3)nc(-c3cnc4[nH]ccc4c3)nc12 | < 100 nM | < 100 nM | < 100 nM | < 1000 nM |
| O=C(NCCN1CCCCC1)c1cc2nc(-c3cccc4[nH]ncc34)nc(N3CCOCC3)c2s1 | > 100 nM | < 100 nM | > 100 nM | < 1000 nM |
| COC/C=C/c1cc2nc(-c3cccc4[nH]ncc34)nc(N3CCOCC3)c2s1 | > 100 nM | < 100 nM | < 100 nM | < 1000 nM |
| CS(=O)(=O)c1cccc(C(=O)NCc2cc3nc(-c4cccc5[nH]ncc45)nc(N4CCOCC4)c3s2)c1 | > 100 nM | < 100 nM | < 100 nM | < 1000 nM |
| O=S(=O)(Nc1cccc(O)c1)c1cc2nc(-c3cccc4[nH]ncc34)nc(N3CCOCC3)c2s1 | > 100 nM | < 100 nM | < 100 nM | < 1000 nM |
| OC1(c2cc3nc(-c4cccc5[nH]ncc45)nc(N4CCOCC4)c3s2)CCC1 | > 100 nM | < 100 nM | > 100 nM | < 1000 nM |
| CN(C)Cc1cc2nc(-c3cccc4[nH]ncc34)nc(N3CCOCC3)c2s1 | > 100 nM | < 100 nM | < 100 nM | < 1000 nM |
| c1cc(-c2nc(N3CCOCC3)c3sc(-c4cn[nH]c4)cc3n2)c2cn[nH]c2c1 | > 100 nM | < 100 nM | > 100 nM | < 1000 nM |
| C[C@H](O)CNC(=O)c1cccc(-c2cc3nc(-c4cccc5[nH]ncc45)nc(N4CCOCC4)c3s2)c1 | > 100 nM | < 100 nM | < 100 nM | < 1000 nM |
| c1cc2cc(-c3nc(N4CCOCC4)c4sc(-c5ccc(N6CCOCC6)nc5)cc4n3)cnc2[nH]1 | < 100 nM | < 100 nM | < 100 nM | < 1000 nM |
| CC(=O)Nc1cccc(-c2cc3nc(-c4cccc5[nH]ncc45)nc(N4CCOCC4)c3s2)c1 | > 100 nM | < 100 nM | < 100 nM | < 1000 nM |
| O=C(NCc1cc2nc(-c3cccc4[nH]ncc34)nc(N3CCOCC3)c2s1)N1CCOCC1 | > 100 nM | < 100 nM | > 100 nM | < 1000 nM |
| OCc1cccc(-c2cc3nc(-c4cccc5[nH]ncc45)nc(N4CCOCC4)c3s2)c1 | > 100 nM | < 100 nM | < 100 nM | < 1000 nM |
| NCC(=O)Nc1cccc(-c2cc3nc(-c4cccc5[nH]ncc45)nc(N4CCOCC4)c3s2)c1 | > 100 nM | > 100 nM | < 100 nM | < 1000 nM |
| OCCNc1cc2nc(-c3cccc4[nH]ncc34)nc(N3CCOCC3)c2s1 | > 100 nM | < 100 nM | > 100 nM | < 1000 nM |
| CS(=O)(=O)c1cccc(-c2cc3nc(-c4cnc5[nH]ccc5c4)nc(N4CCOCC4)c3s2)c1 | < 100 nM | < 100 nM | < 100 nM | < 1000 nM |
